In patent US20240285599A1, “Mature-Hepatocyte Transdifferentiation Suppressing Composition” (OSAKA UNIVERSITY, priority 2021, published 2024):

Assays:
[1] = system: TRAF3/PTEN knockdown HepG2 cell; test: Cell proliferation assay (IncuCyte) of TRAF3/PTEN knockdown HepG2; type: cell-based, human
Protocol: (§1) Hepatocytes or cholangiocarcinoma cells were inoculated on a 96-well plate, and their cell proliferation was analyzed with IncuCyte (trademark) Si (Sartorius AG, Germany) in accordance with the manufacturer's instructions.
Specifically, 24 hours after the start of the culture of each of the PTKD #1HepG2 and the PTKD #1PHH obtained in Test Example 5, NIKSMI described above was added at a concentration of 9 μM. 48 Hours after that, the cells were recovered, and the mRNA of KRT19 was quantified, followed by immunoblotting.
Specifically, the NIK KD #1 or the NIK KD #2 was transfected into the PTKD #1HepG2 and the PTKD #1PHH obtained in Test Example 5 to provide a PTKDNIK #1 and a PTKDNIK #2, respectively. 72 Hours after the start of the culture of each of the cells, the cell was recovered, and the mRNA of KRT19 was quantified, followed by immunoblotting.
The above-mentioned cell proliferation analysis and the production of the cell growth curves were performed with IncuCyte (trademark).

[2] = system: human cholangiocarcinoma cell line HuCCT1; test: Cell proliferation assay (IncuCyte) of cholangiocarcinoma cell line HuCCT1; type: cell-based
Protocol: A human hepatoma cell line HepG2, and human cholangiocarcinoma cell lines HuCCT1, HuCCA1, and KKU213 were obtained from the JCRB Cell Bank. The HepG2 and KKU213 cells were cultured in a Dulbecco's modified Eagle's medium (DMEM; Nacalai Tesque, Inc., Japan) having added thereto 10% heat-inactivated fetal calf serum (FCS; Gibco, USA). The HuCCT1 cells were cultured in an RPMI medium (Nacalai Tesque, Inc., Japan) containing 10% FCS. The HuCCA1 cells were cultured in D-MEM/Ham's F-12 (containing L-glutamine and phenol red) (Wako Pure Chemical Industries, Ltd., Japan) having added thereto 10% FCS. All the cells were cultured with a CO2 incubator at 37° C. The cells were detached with trypsin (Nacalai Tesque, Inc., Japan), and were passaged. Those cells were routinely examined for mycoplasma.
The transfection of siRNA or a plasmid into cells was performed with Lipofectamine RNAiMAX Transfection Reagent (Thermo Fisher Scientific, Inc., USA) or Lipofectamine 2000 (Thermo Fisher Scientific, Inc., USA), respectively, and with Opti-MEM (Thermo Fisher Scientific, Inc., USA). The transfection of the siRNA was performed as follows: the cells were dispersed at a concentration of 100,000 cells/mL; 10 μM of the siRNA was mixed into 100 μL of the Opti-MEM at a ratio of 1 μL, and the mixture was left at rest for 5 minutes; and then 3 μL of the RNAiMAX was mixed into the mixture, and the whole was left at rest for 15 minutes, followed by administration to the supernatant of the previously dispersed cells. Further, a medium change was performed 24 hours thereafter.
as §1
Two kinds of NIK siRNA (the NIK KD #1 and the NIK KD #2) were introduced into each of human cholangiocarcinoma cell lines HuCCT1, HuCCA1, and KKU213 to knock down MAP3K14 (NIK). […]

[3] = NIK siRNA transfected, cell growth curve FIG. 14B

Row | Compound | increase in proliferation rate of the HepG2 cell by knockdown of TRAF3 and PTEN [1, 3] | proliferation of cholangiocarcinoma cells ([2]; NIK siRNA introduced, FIG. 18) | increase in proliferation rate of the HepG2 cell by knockdown of TRAF3 and PTEN ([1]; NIKSMI 9 μM, cell growth curve FIG. 14A) | proliferation of cholangiocarcinoma cells ([2]; 9 μM or 15 μM added at beginning of culture, FIG. 21A)
1 | NIK KD #2: siRNA of NIK, SEQ ID NO: 4 (sense) and 5 (antisense), from Thermo Fisher Scientific (sense GCAAAGAGCAAGAACCAAAUU; antisense UUUGGUUCUUGCUCUUUGCGU; listed as RNA, chemistry not given here) | blocked | significantly suppressed |  | 
2 | COc1cc(C(N)=O)nc(-c2cccc(C#C[C@]3(O)CCN(C)C3=O)c2)c1 [NIKSMI, (R)-6-(3-((3-hydroxy-1-methyl-2-oxopyrrolidin-3-yl)ethynyl)phenyl)-4-methoxypicolinamide] |  |  | blocked | significantly suppressed
3 | NIK KD #1: siRNA of NIK, SEQ ID NO: 2 (sense) and 3 (antisense), from Thermo Fisher Scientific (sense CAAACGCAAAGAGCAAGAAUU; antisense UUCUUGCUCUUUGCGUUUGCA; listed as RNA, chemistry not given here) | blocked | significantly suppressed |  | 
